{"source": "paper PMC11939361", "about": "“diAcCA, a Pro-Drug for Carnosic Acid That Activates the Nrf2 Transcriptional Pathway, Shows Efficacy in the 5xFAD Transgenic Mouse Model of Alzheimer’s Disease” (Antioxidants, 2025)", "key": {"[1]": {"settings": "mouse, in vivo", "quoted_text": "We tested both CA and diAcCA compounds by oral gavage/PO at 10 mg/kg. Analysis was performed by LC-MS in the Scripps Florida Drug Development Core (Jupiter, FL, USA). The compounds were formulated in olive oil. CA went into the oil with minimal stirring, but diAcCA required longer stirring. Blood was collected in hematocrit tubes and centrifuged. […] Drug is therefore likely absorbed via enterocyte passage and through chylomicron absorbance, complicating the early time points of the PK curves.\nTherefore, we decided to pre-weigh the CA into a vial and, in the vivarium, rapidly dissolve the compound in DMSO and then add Tween80/saline. The compound was dosed within five minutes of being dissolved, and the final concentrations were 5% DMSO and 95% of a 5% Tween80 solution in saline. […] Oral clearance calculations assume 100% bioavailability.\nWe also determined the stability and bioavailability of diAcCA compared to CA. For this purpose, individual mice were administered CA or diAcCA IV or via oral gavage/PO. For CA, the doses were 3 mg/kg for the IV route and 10 mg/kg for oral gavage/PO, and for diAcCA 10 mg/kg by oral gavage/PO."}, "[2]": {"system": "5xFAD mice", "assay": "Morris water maze probe test", "assay_type": "in vivo, mouse", "settings": "for Morris water maze probe test, time in the platform quadrant zone: compared to WT control mice; for Morris water maze probe test, percentage of time in the target quadrant / Morris water maze probe test, time to first enter the platform zone: compared to WT controls", "method": "(§1) diAcCA or control vehicle was administered three times per week for 3 months to 5xFAD Tg or WT littermate control mice starting at approximately 5 months of age by oral gavage (designated here as “per os” or PO). Three different doses were used (10 mg/kg, 20 mg/kg, or 50 mg/kg). diAcCA was dissolved in olive oil vehicle, a non-polar organic solvent. For vehicle control, we administered olive oil alone. A total of 45 animals were used in this study, with 7–8 animals in each group.\nThe Morris water maze test is used to evaluate spatial learning and memory skills in rodents. In the experimental setup, mice are placed in a circular tank containing opaque water maintained at a consistent temperature of 21 ± 1 °C. The mice undergo 2 trials each day for a period of 4 days during which they are trained to find a hidden platform placed somewhere within the tank. The platform acts as an escape for the mice from swimming. The starting point of the mice in the tank is randomized; however, the location of the platform remains unchanged for a given mouse. After entering the water, the mice are given a maximum of 90 s to navigate to the platform and climb it. If a mouse is unable to find the platform in this duration, the experimenter offers gentle guidance to help it in reaching the platform. On day 5, after the training phase is over, a “probe trial” is conducted in which the platform is removed from the water maze. The mice are allowed to swim for a period of 60 s to observe if they learned to use spatial cues to navigate to safety (i.e., swim to the area in which the platform had been located and then spend more time in this quadrant of the pool than the other quadrants). After each trial, the mice are given a 10 min rest period in which they are transferred to a new cage with a warm towel. Data are analyzed using Noldus EthoVision software (version XT 17, Leesburg, VA, USA) with parameters measured for “latency to escape” for the acquisition trials and “quadrant time” as well as “distance and velocity of swimming” in the probe test.\nTo delineate the effect of diAcCA on spatial memory, we performed the Morris water maze probe test, a widely used assessment for evaluating hippocampal-dependent memory. After diAcCA or vehicle treatment of WT and 5xFAD mice for 3 months starting at 5 months of age, the animals were initially trained for […] to ensure learning of the spatial memory task, i.e., swimming to the location of a hidden platform in the opaque water maze that the mice could stand on. Subsequently, their memory for the task was measured using the “probe test”, monitoring how well each mouse recalled the location of the platform once it had been removed from the swimming tank. This was assessed by the amount of time spent in the proper quadrant of the tank that previously housed the platform (the “target” quadrant) vs. other quadrants."}, "[3]": {"system": "DAM-related genes in 5xFAD mouse brain", "assay": "nCounter NanoString neuropathology gene expression panel", "assay_type": "in vivo", "method": "as §1\nThe hippocampus/cortex were isolated from the brain and RNA isolation was performed immediately using the Quick-RNA Miniprep kit (76211-580, VWR, Radnor, PA, USA). RNA was then analyzed by the Salk Institute Single-Cell & Spatial Omics Core for the nCounter Neuropathology panel (NanoString, Bruker Spatial Biology, Inc., Seattle, WA, USA). The list of genes included in the NanoString analysis is provided as Supplementary Information (Table S3). The analysis was performed using the following packages on R studio software version 4.2.3: readr 2.1.5, dplyr 1.1.4, clusterProfiler 4.6.2, org.mm.eg.db 3.16.0, ggplot2 3.5.1, and stringr 1.5.1.\nTo elucidate the molecular underpinnings of the effect of diAcCA on neuroinflammation, we next analyzed disease-associated microglia (DAM) signatures in WT and 5xFAD mouse brains using nCounter® biomarker analysis (NanoString, Bruker Spatial Biology, Inc., […]). RNA was isolated from the hippocampus/cortex of WT and 5xFAD mice that had received three-month vehicle or diAcCA treatment, and a NanoString neuropathology gene expression panel was performed (Figure 4)."}, "[4]": {"system": "WT 6XC57BL6 mice", "assay": "Non-GLP toxicology analysis of esophagus and stomach (H&E, inflammation)", "assay_type": "in vivo, mouse", "settings": "for overall safety / toxicology: in vivo", "method": "Starting at 5 months of age, WT 6XC57BL6 mice were given either the highest dose of diAcCA used in this study (50 mg/kg) or olive oil vehicle three times a week for three months by oral gavage/PO. Following the treatment, the esophagus and stomach were isolated, and 5 μm-thick coronal and sagittal sections were cut from the esophagus. The stomach was opened along the greater curvature, cleaned with PBS, and pinned flat. Two 5 μm-thick sagittal sections were collected, one extending from the cardiac region to the duodenum, and the other from the forestomach to the fundic area. All sections were made using a rotary microtome (HM325-#387821, Fisher Scientific) and mounted on SuperfrostPlus slides (#1255015, Fisher brand). The sections were stained by hematoxylin and eosin stain (H&E) [Abcam H&E kit, ab245880], mounted with permount, dried overnight at room temperature, and then imaged. Acquired images were analyzed in a masked fashion for inflammation by a board-certified pathologist.\nExtensive toxicity and safety data are already published on CA [47, 48]. […] Accordingly, in light of our PK findings, we selected a dose of 50 mg/kg to assess safety of the drug after oral administration to WT mice. We performed a non-GLP toxicology analysis of vehicle (olive oil) or drug administered PO three times a week for 3 months starting at 5 months of age. Following this period, sections from the stomach and esophagus were stained with H&E and examined blindly by a board-certified toxicologic pathologist.\nSupplementary Figure S2. Pharmacokinetic and safety studies for diAcCA. […]\n(D, E) Non-GLP toxicology analysis on WT mice after treatment with vehicle ( olive oil) or the highest concentration of diAcCA (50 mg/ kg) used in these experiments.\nRepresentative esophagus and stomach lining sections (D) stained by hematoxylin & eosin (H&E) from two groups of mice. Scale: 500 μm. Bar graph (E) quantifying inflammation in esophagus (periesophagitis) and stomach (neutrophilic gastritis) by a standard tox inflammatory score ranging from 0 to 4 (0: inflammation within normal limits, 1: minimal […]\nbaseline inflammation in WT mice (n =3 animals in each group).\n(1 picture or pasted object on this page, not shown here)"}, "[5]": {"assay": "Shelf life / stability of the compound over time", "assay_type": "physicochemical", "settings": "storage (CA: even if kept in the dark and cold)"}}, "note": "“Also recorded” adds a separate entry of the source.", "data": [{"smiles": "CC(=O)Oc1c(C(C)C)cc2c(c1OC(C)=O)[C@@]1(C(=O)O)CCCC(C)(C)[C@@H]1CC2", "note": "[diAcCA]", "values": [{"measurement": "half-life (t1/2)", "setting": "[1]", "value": "over 12 h"}, {"measurement": "Cmax greater than after CA itself", "setting": "[1]; po", "value": "~30", "unit": "%"}, {"measurement": "Cmax of CA in plasma", "setting": "[1]; po, 10 mg/kg", "value": 5.75}, {"measurement": "Tmax", "setting": "[1]; po, 10 mg/kg", "value": 1.67, "unit": "h"}, {"measurement": "average half-life", "setting": "[1]; po, 10 mg/kg", "value": 12.27, "unit": "h"}, {"measurement": "mean Cmax of CA", "setting": "[1]; po, 10 mg/kg", "value": 5.75, "unit": "µM"}, {"measurement": "t1/2", "setting": "[1]; po, 10 mg/kg", "value": 12.27, "unit": "h"}, {"measurement": "time to peak plasma levels of CA after administration of diAcCA", "setting": "[1]; po, 10 mg/kg", "value": "~ 15 min"}, {"measurement": "Morris water maze probe test, time in the platform quadrant zone", "setting": "[2]; 10 mg/kg and 20 mg/kg", "value": "spent significantly less time in the platform quadrant zone compared to WT control mice"}, {"measurement": "Morris water maze probe test, percentage of time in the target quadrant", "setting": "[2]; 10 mg/kg", "value": "spent significantly less time in the target quadrant"}, {"measurement": "Morris water maze probe test, time to first enter the platform zone", "setting": "[2]; 10 mg/kg", "value": "took significantly more time to first enter the platform zone compared to WT controls"}, {"measurement": "Morris water maze probe test, percentage of time in the target quadrant", "setting": "[2]; 20 mg/kg and 50 mg/kg", "value": "spent a similar percentage of time in the target and other quadrants as the WT controls"}, {"measurement": "Morris water maze probe test, time to first enter the platform zone", "setting": "[2]; 20 mg/kg and 50 mg/kg", "value": "took a similar amount of time compared to WT controls"}, {"measurement": "Morris water maze probe test, time in the platform quadrant zone", "setting": "[2]; 50 mg/kg", "value": "spent similar amount of time in the platform quadrant as WT control mice"}, {"measurement": "Morris water maze probe test, performance (time in target quadrant, time to reach platform zone)", "setting": "[2]; ≥20 mg/kg, or, for total time spent in the target quadrant, 50 mg/kg", "value": "performed significantly better"}, {"measurement": "expression of DAM genes C3 and Igf1", "setting": "[3]; 5xFAD brain, 20 or 50 mg/kg vs vehicle, n = 3", "value": "significantly downregulated"}, {"measurement": "DAM signature (heatmap of DAM-related genes)", "setting": "[3]; 5xFAD hippocampus/cortex RNA, three-month treatment, n = 3", "value": "dose-dependent decrease in DAM signature"}, {"measurement": "GO biological pathway analysis of upregulated and downregulated genes", "setting": "[3]; diAcCA-treated 5xFAD brain vs vehicle-treated", "value": "upregulation of genes enriched in pathways associated with neuroprotection"}, {"measurement": "baseline inflammation in the esophagus (periesophagitis), H&E", "setting": "[4]; WT mice, 50 mg/kg PO three times a week for 3 months vs olive oil vehicle, n = 3, 50 mg/kg", "value": "appeared to improve; also recorded: improved baseline inflammation in the esophagus"}, {"measurement": "overall safety / toxicology", "setting": "[4]; mouse", "value": "as safe or safer than CA"}, {"measurement": "overall safety / toxicology", "setting": "[4]; mouse, listed as diAcCa", "value": "no toxicological issues"}, {"measurement": "toxicity to the digestive system after oral administration", "setting": "[4]; mouse", "value": "no toxicity was noted"}, {"measurement": "shelf life / stability over time", "setting": "[5]", "value": "stable in our hands for over two years"}, {"measurement": "shelf life / stability over time", "setting": "[5]; listed as diAcCa", "value": "stable shelf life (of over two years)"}]}]}
